Experiments:
[1] = test system: HPAC (homozygous mutant KRAS G12D human pancreatic cell line); assay: KRAS 3D-Cell Proliferation Assay, HPAC (Example 503); assay type: cell-based; conditions: Homo sapiens, HPAC, 168 h, HPAC 3D culture, 7 days, CellTiter-Glo 3D; read-out: Prolif HPAC 3D ATP IC50
How it was run: (§1)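 IC50s come from a 4-parameter Hill fit of luminescence (CellTiter-Glo 3D) normalized between DMSO (0%) and 1 μM staurosporine (100%). Cells in low-attachment 3D culture, RPMI-1640 with 10% FBS, received serial compound dilutions (0.3% DMSO) after overnight and were incubated 7 days at 37 °C.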

[2] = test system: H1975 (KRAS wild type human lung adenocarcinoma cell line); assay: KRAS 3D-Cell Proliferation Assay, H1975 (Example 503); assay type: cell-based; conditions: Homo sapiens, NCI-H1975, 168 h, H1975 3D culture, 7 days, CellTiter-Glo 3D; read-out: Prolif H1975 3D ATP IC50
How it was run: as §1

Row | Compound | IC50 [1] | IC50 [2]
1 | Cc1c(F)c(N)cc(-c2nc3c4c(nc(OC[C@@]56CCC(C)N5C[C@H](F)C6)nc4c2F)N2C[C@H]4CC[C@H](N4)[C@H]2[C@H](C)O3)c1C(F)(F)F (stereo partly drawn) [Compound 122, 2-fluoro-5-((5S,5aS,6S,9R)-1-fluoro-12-(((2R,7aS)-2-fluoro-5-methyltetrahydro-1H-pyrrolizin-7a(5H)-yl)methoxy)-5-methyl-5a,6,7,8,9,10-hexahydro-5H-4-oxa-3,10a,11,13,14-pentaaza-6,9-methanonaphtho[1,8-ab]heptalen-2-yl)-3-methyl-4-(trifluoromethyl)aniline] | 1.84 nM | 487 nM
2 | Cc1c(F)c(N)cc(-c2nc3c4c(nc(OCC5CN(CC(F)F)C5)nc4c2F)N2C[C@H]4CC[C@H](N4)[C@H]2[C@H](C)O3)c1C(F)(F)F [Compound 128, 5-((5S,5aS,6S,9R)-12-((1-(2,2-Difluoroethyl)azetidin-3-yl)methoxy)-1-fluoro-5-methyl-5a,6,7,8,9,10-hexahydro-5H-4-oxa-3,10a,11,13,14-pentaaza-6,9-methanonaphtho[1,8-ab]heptalen-2-yl)-2-fluoro-3-methyl-4-(trifluoromethyl)aniline] | 51.5 nM | 5060 nM
3 | Cc1c(F)c(N)cc(-c2nc3c4c(nc(OCC56COC(CN5C)C6)nc4c2F)N2C[C@H]4CC[C@H](N4)[C@H]2[C@H](C)O3)c1C(F)(F)F [Compound 132, 2-Fluoro-5-((5S,5aS,6S,9R)-1-fluoro-5-methyl-12-((5-methyl-2-oxa-5-azabicyclo[2.2.1]heptan-4-yl)methoxy)-5a,6,7,8,9,10-hexahydro-5H-4-oxa-3,10a,11,13,14-pentaaza-6,9-methanonaphtho[1,8-ab]heptalen-2-yl)-3-methyl-4-(trifluoromethyl)aniline] | 70.4 nM | 14200 nM
4 | Cc1c(F)c(N)cc(-c2nc3c4c(nc(OC[C@@H]5CO[C@H]6CC[N@]5C6)nc4c2F)N2C[C@H]4CC[C@H](N4)[C@H]2[C@H](C)O3)c1C(F)(F)F [Compound 135, 5-((5S,5aS,6S,9R)-12-(((1R,2S,5S)-4-Oxa-1-azabicyclo[3.2.1]octan-2-yl)methoxy)-1-fluoro-5-methyl-5a,6,7,8,9,10-hexahydro-5H-4-oxa-3,10a,11,13,14-pentaaza-6,9-methanonaphtho[1,8-ab]heptalen-2-yl)-2-fluoro-3-methyl-4-(trifluoromethyl)aniline] | 95.6 nM | 20000 nM
5 | Cc1c(F)c(N)cc(-c2nc3c4c(nc(OCCCN5CCOCC5)nc4c2F)N2C[C@H]4CC[C@H](N4)[C@H]2[C@H](C)O3)c1C(F)(F)F [Compound 138, 2-Fluoro-5-((5S,5aS,6S,9R)-1-fluoro-5-methyl-12-(3-morpholinopropoxy)-5a,6,7,8,9,10-hexahydro-5H-4-oxa-3,10a,11,13,14-pentaaza-6,9-methanonaphtho[1,8-ab]heptalen-2-yl)-3-methyl-4-(trifluoromethyl)aniline] | 15.1 nM | 2550 nM
6 | Cc1c(F)c(N)cc(-c2nc3c4c(nc(OCC56C[C@H](F)CN5C[C@@H](F)C6)nc4c2F)N2C[C@H]4CC[C@H](N4)[C@H]2[C@H](C)O3)c1C(F)(F)F [Compound 139, 5-((5S,5aS,6S,9R)-12-(((2S,6S)-2,6-Difluorotetrahydro-1H-pyrrolizin-7a(5H)-yl)methoxy)-1-fluoro-5-methyl-5a,6,7,8,9,10-hexahydro-5H-4-oxa-3,10a,11,13,14-pentaaza-6,9-methanonaphtho[1,8-ab]heptalen-2-yl)-2-fluoro-3-methyl-4-(trifluoromethyl)aniline] | 118 nM | 8570 nM
7 | Cc1c(F)c(N)cc(-c2nc3c4c(nc(OC[C@]56C[C@H](F)CN5C[C@H](F)C6)nc4c2F)N2C[C@H]4CC[C@H](N4)[C@H]2[C@H](C)O3)c1C(F)(F)F [Compound 141, 5-((5S,5aS,6S,9R)-12-(((2R,6S,7ar)-2,6-Difluorotetrahydro-1H-pyrrolizin-7a(5H)-yl)methoxy)-1-fluoro-5-methyl-5a,6,7,8,9,10-hexahydro-5H-4-oxa-3,10a,11,13,14-pentaaza-6,9-methanonaphtho[1,8-ab]heptalen-2-yl)-2-fluoro-3-methyl-4-(trifluoromethyl)aniline] | 6.92 nM | 6240 nM
8 | Cc1c(F)c(N)cc(-c2nc3c4c(nc(OC[C@@]56C[C@H](F)CN5C[C@H](F)C6)nc4c2F)N2C[C@H]4CC[C@H](N4)[C@H]2[C@H](C)O3)c1C(F)(F)F [Compound 142, 5-((5S,5aS,6S,9R)-12-(((2R,6S,7as)-2,6-Difluorotetrahydro-1H-pyrrolizin-7a(5H)-yl)methoxy)-1-fluoro-5-methyl-5a,6,7,8,9,10-hexahydro-5H-4-oxa-3,10a,11,13,14-pentaaza-6,9-methanonaphtho[1,8-ab]heptalen-2-yl)-2-fluoro-3-methyl-4-(trifluoromethyl)aniline] | 5.45 nM | 3560 nM
9 | Cc1c(F)c(N)cc(-c2nc3c4c(nc(OC[C@H](F)CN5CC6(COC6)C5)nc4c2F)N2C[C@H]4CC[C@H](N4)[C@H]2[C@H](C)O3)c1C(F)(F)F [Compound 144] | 21.2 nM | 7510 nM
10 | Cc1c(F)c(N)cc(-c2nc3c4c(nc(OC[C@@H](F)CN5CC6(COC6)C5)nc4c2F)N2C[C@H]4CC[C@H](N4)[C@H]2[C@H](C)O3)c1C(F)(F)F [Compound 145] | 68.7 nM | 5120 nM
11 | Cc1c(F)c(N)cc(-c2nc3c4c(nc(OC[C@@H](F)CN5CC(CO)(CO)C5)nc4c2F)N2C[C@H]4CC[C@H](N4)[C@H]2[C@H](C)O3)c1C(F)(F)F [Compound 146] | 1740 nM | 20000 nM
12 | Cc1c(F)c(N)cc(-c2nc3c4c(nc(OCCC5(N6CCOCC6)COC5)nc4c2F)N2C[C@H]4CC[C@H](N4)[C@H]2[C@H](C)O3)c1C(F)(F)F [Compound 149, 2-Fluoro-5-((5S,5aS,6S,9R)-1-fluoro-5-methyl-12-(2-(3-morpholinooxetan-3-yl)ethoxy)-5a,6,7,8,9,10-hexahydro-5H-4-oxa-3,10a,11,13,14-pentaaza-6,9-methanonaphtho[1,8-ab]heptalen-2-yl)-3-methyl-4-(trifluoromethyl)aniline] | 186 nM | 20000 nM
13 | Cc1c(F)c(N)cc(-c2nc3c4c(nc(OCC[C@@H]5CC[C@H]6COCCN56)nc4c2F)N2C[C@H]4CC[C@H](N4)[C@H]2[C@H](C)O3)c1C(F)(F)F [Compound 154, 2-Fluoro-5-((5S,5aS,6S,9R)-1-fluoro-12-(2-((6S,8aS)-hexahydro-1H-pyrrolo[2,1-c][1,4]oxazin-6-yl)ethoxy)-5-methyl-5a,6,7,8,9,10-hexahydro-5H-4-oxa-3,10a,11,13,14-pentaaza-6,9-methanonaphtho[1,8-ab]heptalen-2-yl)-3-methyl-4-(trifluoromethyl)aniline] | 20.5 nM | 4100 nM
14 | C[C@@H]1Oc2nc(-c3cc(N)c(F)c(F)c3C(F)(F)F)c(F)c3nc(OCC45CCN4CC(F)(F)C5)nc(c23)N2C[C@H]3CC[C@H](N3)[C@@H]12 (stereo partly drawn) [Compound 155, 5-((5S,5aS,6S,9R)-12-((3,3-difluoro-1-azabicyclo[3.2.0]heptan-5-yl)methoxy)-1-fluoro-5-methyl-5a,6,7,8,9,10-hexahydro-5H-4-oxa-3,10a,11,13,14-pentaaza-6,9-methanonaphtho[1,8-ab]heptalen-2-yl)-2,3-difluoro-4-(trifluoromethyl)aniline] | 8.84 nM | 4750 nM
15 | C[C@@H]1Oc2nc(-c3cc(N)cc(F)c3C(F)(F)F)c(F)c3nc(OCC4CCC5N4CCOC5(C)C)nc(c23)N2C[C@H]3CC[C@H](N3)[C@@H]12 (stereo partly drawn) [Compound 157, 3-((5S,5aS,6S,9R)-12-((1,1-Dimethylhexahydro-1H-pyrrolo[2,1-c][1,4]oxazin-6-yl)methoxy)-1-fluoro-5-methyl-5a,6,7,8,9,10-hexahydro-5H-4-oxa-3,10a,11,13,14-pentaaza-6,9-methanonaphtho[1,8-ab]heptalen-2-yl)-5-fluoro-4-(trifluoromethyl)aniline] | 12.8 nM | 2140 nM
16 | C[C@@H]1Oc2nc(-c3cc(N)c(F)c(F)c3CC(F)F)c(F)c3cc(OC[C@@H]4CC[C@H]5COCCN54)nc(c23)N2C[C@H]3CC[C@H](N3)[C@@H]12 [Compound 158, 4-(2,2-Difluoroethyl)-2,3-difluoro-5-((5S,5aS,6S,9R)-1-fluoro-13-(((6S,8aS)-hexahydro-1H-pyrrolo[2,1-c][1,4]oxazin-6-yl)methoxy)-5-methyl-5a,6,7,8,9,10-hexahydro-5H-6,9-epiminoazepino[2′,1′:3,4][1,4]oxazepino[5,6,7-ij][2,7]naphthyridin-2-yl)aniline] | 9.94 nM | 13800 nM
17 | Cc1c(F)c(N)cc(-c2nc3c4c(nc(OC[C@H]5[C@H](C#N)CCN5C)nc4c2F)N2C[C@H]4CC[C@H](N4)[C@H]2[C@H](C)O3)c1C(F)(F)F [Compound 161, (2R,3R)-2-((((5S,5aS,6S,9R)-2-(5-Amino-4° fluoro-3-methyl-2-(trifluoromethyl)°henyl)-1-fluoro-5-methyl-5a,6,7,8,9,10-hexahydro-5H-4-oxa-3,10a,11,13,14-pentaaza-6,9-methanonaphtho[1,8-ab]heptalen-12-yl)oxy)methyl)-1-methylpyrrolidine-3-carbonitrile] | 68.9 nM | 13000 nM
18 | Cc1c(F)c(N)cc(-c2nc3c4c(nc(OCCCN5C[C@H]6C[C@@H]5CO6)nc4c2F)N2C[C@H]4CC[C@H](N4)[C@H]2[C@H](C)O3)c1C(F)(F)F [Compound 163, 5-((5S,5aS,6S,9R)-12-(3-((1R,4R)-2-Oxa-5-azabicyclo[2.2.1]heptan-5-yl)propoxy)-1-fluoro-5-methyl-5a,6,7,8,9,10-hexahydro-5H-4-oxa-3,10a,11,13,14-pentaaza-6,9-methanonaphtho[1,8-ab]heptalen-2-yl)-2-fluoro-3-methyl-4-(trifluoromethyl)aniline] | 10.2 nM | 1140 nM

Source: patent US12338256B2, “Aza-tetracyclic oxazepine compounds and uses thereof” (Genentech, Inc., priority 2022, dated 2025)
